Reference: patent US11845760B2, “PRMT5 inhibitors” (AMGEN INC., priority 2020, dated 2023)
Like-named read-outs stand apart in the source and are kept apart here.

Legend:
HCT116 MTAP null cells = assay: HCT116 MTAP null cell line proliferation (CellTiter-Glo cell viability, 6 days); format: cell-based; conditions: HCT116 MTAP null cells, 6 days of treatment, CellTiter-Glo cell viability, read-out: HCT-116 MTAP null IC50
Method in brief: (§1)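 Viability by CellTiter-Glo after 6 days' drug exposure in wild-type HCT116 and its MTAP-null knockout, with DMSO-only control. Dosing used either 1:3 steps (top 1 or 10 μM) or 22 points in 1:2 steps (top 10 or 50 μM). IC50 taken where the fitted curve crosses 50% of control.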

HCT116 WT cells = assay: HCT116 WT cell line proliferation (CellTiter-Glo cell viability, 6 days); format: cell-based; conditions: HCT116 WT (parent) cells, 6 days of treatment, CellTiter-Glo cell viability, read-out: HCT-116 WT IC50
Method in brief: as §1

| Compound | IC50 (HCT116 MTAP null cells; HCT116-MTAP null, 144 h) | IC50 (HCT116 WT cells; Homo sapiens, HCT-116, 144 h) | IC50 (HCT116 MTAP null cells) | IC50 (HCT116 WT cells) |
| --- | --- | --- | --- | --- |
| C[C@H]1COC[C@@H](c2ccc(C(F)(F)F)cc2F)N1C(=O)c1cc2c3c(c(N)nc2cn1)COC3 (racemic) [Example 334, (4-amino-1,3-dihydrofuro[3,4-c][1,7]naphthyridin-8-yl)((3R,5S)-3-(2-fluoro-4-(trifluoromethyl)phenyl)-5-methyl-4-morpholinyl)methanone and (4-amino-1,3-dihydrofuro[3,4-c][1,7]naphthyridin-8-yl)((3S,5R)-3-(2-fluoro-4-(trifluoromethyl)phenyl)-5-methyl-4-morpholinyl)methanone] | 27 nM | 706 nM |  |  |
| Nc1nc2cnc(C(=O)N3CCOCC3c3ccc(F)c(C(F)(F)F)c3)cc2c2c1COC2 (racemic) [Example 349, (4-amino-1,3-dihydrofuro[3,4-c][1,7]naphthyridin-8-yl)((3R)-3-(4-fluoro-3-(trifluoromethyl)phenyl)-4-morpholinyl)methanone and (4-amino-1,3-dihydrofuro[3,4-c][1,7]naphthyridin-8-yl)((3S)-3-(4-fluoro-3-(trifluoromethyl)phenyl)-4-morpholinyl)methanone] |  |  | 505 nM | 20800 nM |
| C[C@H]1OCc2c1c(N)nc1ccc(C(=O)N3[C@@H](C)COC[C@H]3c3ccc(Cl)nc3)cc21 (racemic) [Example 312, ((3R)-4-amino-3-methyl-1,3-dihydrofuro[3,4-c]quinolin-8-yl)((3R,5S)-3-(6-chloro-3-pyridinyl)-5-methyl-4-morpholinyl)methanone and ((3R)-4-amino-3-methyl-1,3-dihydrofuro[3,4-c]quinolin-8-yl)((3S,5R)-3-(6-chloro-3-pyridinyl)-5-methyl-4-morpholinyl)methanone] | 71 nM | 3000 nM |  |  |
| C[C@H]1OCc2c1c(N)nc1ccc(C(=O)N3CCOC[C@H]3c3ccc(C(F)(F)F)cn3)cc21 (racemic) [Example 343, ((3R)-4-amino-3-methyl-1,3-dihydrofuro[3,4-c]quinolin-8-yl)((3R)-3-(5-(trifluoromethyl)-2-pyridinyl)-4-morpholinyl)methanone and ((3R)-4-amino-3-methyl-1,3-dihydrofuro[3,4-c]quinolin-8-yl)((3S)-3-(5-(trifluoromethyl)-2-pyridinyl)-4-morpholinyl)methanone] | 308 nM | 16200 nM |  |  |
| C[C@H]1COC[C@@H](c2ccc(C(F)(F)F)cn2)N1C(=O)c1cc2c3c(c(N)nc2cc1Cl)COC3 (racemic) [Example 301, (4-amino-7-chloro-1,3-dihydrofuro[3,4-c]quinolin-8-yl)((3R,5S)-3-methyl-5-(5-(trifluoromethyl)-2-pyridinyl)-4-morpholinyl)methanone and (4-amino-7-chloro-1,3-dihydrofuro[3,4-c]quinolin-8-yl)((3S,5R)-3-methyl-5-(5-(trifluoromethyl)-2-pyridinyl)-4-morpholinyl)methanone] | 6 nM | 60 nM |  |  |
| C[C@H]1OCc2c1c(N)nc1ccc(C(=O)N3[C@@H](C)COC[C@H]3c3ccc(C(F)(F)F)nc3)cc21 (racemic) [Example 305, ((3R)-4-amino-3-methyl-1,3-dihydrofuro[3,4-c]quinolin-8-yl)((3R,5S)-3-methyl-5-(6-(trifluoromethyl)-3-pyridinyl)-4-morpholinyl)methanone and ((3R)-4-amino-3-methyl-1,3-dihydrofuro[3,4-c]quinolin-8-yl)((3S,5R)-3-methyl-5-(6-(trifluoromethyl)-3-pyridinyl)-4-morpholinyl)methanone] | 49 nM | 611 nM |  |  |
| (4-amino-7-fluoro-1-methyl- 1H-pyrazolo[4,3-c]quinolin- 8-yl)((4R)-3,3-dimethyl-4-(4- (trifluoromethyl)phenyl)-1- pyrrolidinyl)methanone and (4-amino-7-fluoro-1-methyl- 1H-pyrazolo[4,3-c]quinolin- 8-yl)((4S)-3,3-dimethyl-4-(4- (trifluoromethyl)phenyl)-1- pyrrolidinyl)methanone [Example 445] |  |  | 11 nM | 240 nM |
| C[C@H]1OCc2c1c(N)nc1ccc(C(=O)N3CCOC[C@H]3c3ccc(F)c(OC(F)(F)F)c3)cc21 (racemic) [Example 373, ((3R)-4-amino-3-methyl-1,3-dihydrofuro[3,4-c]quinolin-8-yl)((3R)-3-(4-fluoro-3-(trifluoromethoxy)phenyl)-4-morpholinyl)methanone and ((3R)-4-amino-3-methyl-1,3-dihydrofuro[3,4-c]quinolin-8-yl)((3S)-3-(4-fluoro-3-(trifluoromethoxy)phenyl)-4-morpholinyl)methanone] | 442 nM | 7820 nM |  |  |
| C[C@H]1OCc2c1c(N)nc1cnc(C(=O)N3CCOC[C@H]3c3ccc(C(F)(F)F)cn3)cc21 (racemic) [Example 357, ((3R)-4-amino-3-methyl-1,3-dihydrofuro[3,4-c][1,7]naphthyridin-8-yl)((3R)-3-(5-(trifluoromethyl)-2-pyridinyl)-4-morpholinyl)methanone and ((3R)-4-amino-3-methyl-1,3-dihydrofuro[3,4-c][1,7]naphthyridin-8-yl)((3S)-3-(5-(trifluoromethyl)-2-pyridinyl)-4-morpholinyl)methanone] | 175 nM | 9390 nM |  |  |

Continued, values first:

| IC50 (HCT116 MTAP null cells; HCT116-MTAP null, 144 h) | IC50 (HCT116 WT cells; Homo sapiens, HCT-116, 144 h) | IC50 (HCT116 MTAP null cells) | IC50 (HCT116 WT cells) | Compound |
| --- | --- | --- | --- | --- |
| 56 nM | 2800 nM |  |  | Cc1cc2nc(N)c3c(cnn3C)c2cc1C(=O)N1CCOC[C@@H]1c1ccc(C(F)(F)F)cc1 [Example 414, (4-amino-3,7-dimethyl-3H-pyrazolo[3,4-c]quinolin-8-yl)((3S)-3-(4-(trifluoromethyl)phenyl)-4-morpholinyl)methanone] |
| 236 nM | 11700 nM |  |  | Cn1ncc2c3cc(C(=O)N4CCOC[C@@H]4c4ccc(C(F)(F)F)cc4)ccc3nc(N)c21 (single isomer, unassigned) [Example 584] |
| 41 nM | 1230 nM |  |  | C[C@@H]1COC[C@H](c2ccc(C(F)(F)F)nn2)N1C(=O)c1cc2c3c(c(N)nc2cn1)COC3 [Example 555, (4-amino-1,3-dihydrofuro[3,4-c][1,7]naphthyridin-8-yl)((3R,5S)-3-methyl-5-(6-(trifluoromethyl)-3-pyridazinyl)-4-morpholinyl)methanone] |
| 697 nM | 37100 nM |  |  | Cn1ncc2c3cc(C(=O)N4CCOC[C@@H]4c4ccc(OC(F)F)nn4)c(F)cc3nc(N)c21 [Example 557, (4-amino-7-fluoro-3-methyl-3H-pyrazolo[3,4-c]quinolin-8-yl)((3S)-3-(6-(difluoromethoxy)-3-pyridazinyl)-4-morpholinyl)methanone] |
| 45 nM | 2480 nM |  |  | C[C@@H]1COC[C@H](c2ccc(C(F)(F)F)cc2)N1C(=O)c1ccc2nc(N)c3c(cnn3C)c2c1 [Example 533, (4-amino-3-methyl-3H-pyrazolo[3,4-c]quinolin-8-yl)((3R,5S)-3-methyl-5-(4-(trifluoromethyl)phenyl)-4-morpholinyl)methanone] |
| > 1000 nM | > 10000 nM |  |  | Nc1nc2ccc(C(=O)N3CCOC[C@H]3c3ccc(C(F)(F)F)cn3)cc2c2c1COC2 (single isomer, unassigned) [Example 571] |
| 17 nM | 523 nM |  |  | C[C@H]1OCc2c1c(N)nc1cnc(C(=O)N3CCOC[C@@H]3c3ccc(S(F)(F)(F)(F)F)cc3)cc21 [Example 417, ((3R)-4-amino-3-methyl-1,3-dihydrofuro[3,4-c][1,7]naphthyridin-8-yl)((3S)-3-(4-(pentafluoro-lambda~6~-sulfanyl)phenyl)-4-morpholinyl)methanone] |
| 382 nM | 20600 nM |  |  | Nc1nc2cc(F)c(C(=O)N3CC(O)(c4ccc(C(F)(F)F)cc4)C3)cc2c2c1COC2 [Example 429, (4-amino-7-fluoro-1,3-dihydrofuro[3,4-c]quinolin-8-yl)(3-hydroxy-3-(4-(trifluoromethyl)phenyl)-1-azetidinyl)methanone] |
| 72 nM | 6140 nM |  |  | Nc1nc2cnc(C(=O)N3CCOC[C@@H]3c3ncc(Br)cc3F)cc2c2c1COC2 (single isomer, unassigned) [Example 459] |
| 235 nM | 12500 nM |  |  | Nc1nc2cc(Cl)c(C(=O)N3CCC(c4ccc(C(F)(F)F)cn4)C3)cc2c2c1COC2 (racemic) [Example 542, (4-amino-7-chloro-1,3-dihydrofuro[3,4-c]quinolin-8-yl)((3R)-3-(5-(trifluoromethyl)-2-pyridinyl)-1-pyrrolidinyl)methanone and (4-amino-7-chloro-1,3-dihydrofuro[3,4-c]quinolin-8-yl)((3S)-3-(5-(trifluoromethyl)-2-pyridinyl)-1-pyrrolidinyl)methanone] |
| 122 nM | 6550 nM |  |  | C[C@H]1OCc2c1c(N)nc1ccc(C(=O)N3C[C@H](c4ccc(F)cc4)C(C)(C)C3)cc21 (single isomer, unassigned) [Example 463] |
| 17 nM | 556 nM |  |  | CC1(C)CN(C(=O)c2cc3c4c(c(N)nc3cc2F)COC4)C[C@@H]1c1ccc(C(F)(F)F)cc1 (single isomer, unassigned) [Example 473] |
| 914 nM | > 50000 nM |  |  | C[C@H]1OCc2c1c(N)nc1ccc(C(=O)N3CC(c4ccc(C(F)(F)F)cn4)C3)cc21 [Example 421, ((3R)-4-amino-3-methyl-1,3-dihydrofuro[3,4-c]quinolin-8-yl)(3-(5-(trifluoromethyl)-2-pyridinyl)-1-azetidinyl)methanone] |
| > 1000 nM | > 10000 nM |  |  | Cc1ccc([C@@H]2COCCN2C(=O)c2cc3c4c(c(N)nc3cn2)COC4)cn1 (single isomer, unassigned) [Example 608] |
